From article PMC8099175, “SARS-CoV-2 M^pro inhibitors with antiviral activity in a transgenic mouse model” (Science (New York, N.y.), 2021)
Like-named read-outs stand apart in the source and are kept apart here.

Assays:
[1] = test system: SARS-CoV-2 in HPAEpiC cells; assay: RT-qPCR virus replication assay in HPAEpiC cells; format: cell-based; conditions: for EC90: Severe acute respiratory syndrome coronavirus 2
[2] = test system: SARS-CoV-2–infected Vero E6 cells; assay: cell protection assay (CCK8); format: cell-based; conditions: for EC50: Vero E6 cells, MOI 0.1, 3 dpi, CCK8
[3] = acute toxicity experiment in rats; format: in vivo; conditions: i.v. 40 mg/kg, i.p. 250 mg/kg, or p.o. 500 mg/kg
[4] = PK experiments in Sprague-Dawley rats; conditions: rat
From the text: To identify which of the six compounds is suitable for in vivo antiviral studies, we conducted PK experiments in Sprague-Dawley rats.

[5] = test system: SARS-CoV-2; assay: hACE2 transgenic mouse model of SARS-CoV-2 infection; format: in vivo, hACE2 transgenic mice; conditions: for viral RNA loads in the lung tissues: 2 × 10^6 TCID50, 50 mg/kg, 3 and 5 dpi; for viral loads in the lung tissues: 5 dpi; for lung histopathology / neutrophils and macrophages in the lungs vs control mice: 5 × 10^6 TCID50, 3 dpi; for expression levels of IFN-β and CXCL10 in the lungs: 5 × 10^6 TCID50, lung tissue homogenate; for lung viral loads and lung lesions: oral or intraperitoneal treatment, summary statement; for abnormal behaviors or body weight loss: pilot study, 2 × 10^6 TCID50, MI-09 50 mg/kg p.o. bid or i.p. qd, MI-30 50 mg/kg i.p. qd, 6-day period
[6] = repeated dose toxicity study in rats; format: in vivo; conditions: i.v. 6 and 18 mg kg^–1 day^–1, i.p. 100 and 200 mg kg^–1 day^–1, or p.o. 100 and 200 mg/kg twice daily, 7 consecutive days
[7] = Severe acute respiratory syndrome coronavirus 2, read-out: EC50, SARS-CoV-2 virus replication (RT-qPCR)
[8] = Sprague-Dawley, in vivo, ip, 20 mg/kg
[9] = Sprague-Dawley, in vivo, iv, 10 mg/kg
[10] = Sprague-Dawley, in vivo, po, 20 mg/kg
[11] = 2 × 10^6 TCID50, 50 mg/kg (MI-09 p.o. bid or i.p. qd; MI-30 i.p. qd), 1 dpi
[12] = 5 × 10^6 TCID50, 100 mg/kg i.p. or p.o., 1 dpi
[13] = 5 × 10^6 TCID50, 100 mg/kg i.p. or p.o., 3 dpi
[14] = 5 × 10^6 TCID50, 100 mg/kg i.p. or p.o.
[15] = Severe acute respiratory syndrome coronavirus 2, Vero C1008

Compound | EC90 [1] [nM] | EC50 [1, 7] [nM] | mortality, acute toxicity [3] | AUC [4, 8] [ng·h/mL] | AUC [4, 9] [ng·h/mL] | AUC [4, 10] [ng·h/mL] | bioavailability [4, 10] [%] | mean viral RNA loads in the lung tissues vs control [5, 11] | viral RNA loads in the lung tissues [5] | mean viral RNA loads in the lung tissues vs control [5, 12] | mean viral RNA loads in the lung tissues vs control [5, 13] | viral loads in the lung tissues [5, 14] | lung histopathology [5] | neutrophils and macrophages in the lungs vs control mice [5] | expression levels of IFN-β and CXCL10 in the lungs ([5]; 3 dpi) | lung viral loads and lung lesions [5] | abnormal behaviors or body weight loss [5] | toxicity, repeated dose [6] | EC90 [2, 15] [nM] | EC50 [2, 15] [nM] | also measured
CC(C)C[C@H](NC(=O)OCc1ccccc1)C(=O)N[C@@H](CC1CCNC1=O)C(O)S(=O)(=O)O (some centres unmarked) [GC376, reference compound] | – | – | – | – | – | – | – | – | – | – | – | – | – | – | – | – | – | – | – | – | EC50 ([1]; HPAEpiC cells, MOI 0.01, 2 dpi, viral RNA copies in supernatant, read-out: EC50, SARS-CoV-2 virus replication (RT-qPCR)): 153 nM; EC50 [2]: 1460 nM
CC1(C)[C@@H]2[C@@H](C(=O)N[C@H](C=O)C[C@@H]3CCNC3=O)N(C(=O)COc3ccc(OC(F)(F)F)cc3)C[C@@H]21 [MI-09] | 47.9 | 1.2 | no rats died | 11600 | 7430 | 1660 | 11.2 | significantly (P < 0.05, Student’s t test) lower | almost undetectable | slightly lower | significantly lower | undetectable | slight alveolar septal thickening and mild inflammatory cell infiltration | fewer | reduced | significantly reduced | no abnormal behaviors or body weight loss were observed | did not result in noticeable toxicity | 3620 | 860 | –
O=C[C@H](C[C@@H]1CCNC1=O)NC(=O)[C@@H]1[C@H]2CCC[C@H]2CN1C(=O)COc1ccc(Cl)cc1Cl [MI-30] | 58.8 | 1.1 | no rats died | 14900 | 9770 | 2840 | 14.6 | significantly (P < 0.05, Student’s t test) lower | almost undetectable | slightly lower | significantly lower | undetectable | slight alveolar septal thickening and mild inflammatory cell infiltration | fewer | reduced | significantly reduced | no abnormal behaviors or body weight loss were observed | did not result in noticeable toxicity | 2120 | 540 | half-life [4, 8]: 3.88 h; clearance rate (CL) ([4]; i.p. administration): 17.10 ml min^–1 kg^–1
